Consider 31 molecules from patent US7534444B2, “Molecular mimetics of meningococcal B epitopes which elicit functionally active antibodies” (priority 2001, dated 2009).

Ends that are not written are not given here.

One assay relates to anti-GNA33 mAb 25. The experiment in a line: Peptide binding assay with cellulose-bound spot-synthesised peptides. The arrangement: species or system mouse. Conditions: for Dye Units (binding of anti-GNA33 mAb 25): mAb 25 6 μg/ml; for Relative Binding (of anti-GNA33 mAb 25): alanine substitution of PorA loop 4 VR type P1.2-2 10-mer. The protocol: Peptide spot synthesis was carried out on amino-PEG-cellulose membranes (ABIMED, Langerfeld, Germany) using a model ASP 222 automated spot synthesizer (ABIMED) and diisopropylcarbodiimide (DIC)/N-hydroxybenzotriazole (HOBt) activation (Frank and Overwin, Methods Mol. Biol. (1996) 66:149-169). In situ-prepared 0.2 M HOBt esters of fluorenylmethoxycarbonyl (Fmoc)-amino acid derivatives were used for the coupling reaction. […] After the final cycle, all the peptides were N-terminally acetylated with 2% acetic anhydride. At the end of the synthesis, the side-chain protecting groups were removed using a mixture of trifluoroacetic acid/triisobutylsilane/water/dichloromethane (50/3/2/45).
Cellulose-bound peptides were soaked in ethanol to prevent hydrophobic interactions between the peptides. Non-specific binding was blocked by incubating cellulose sheets overnight at 4° C. with 10 ml of 2% casein in Tris buffered saline (TBS: 50 mM Tris-HCl, 137 mM NaCl, […], pH 7.0), containing 0.05% TWEEN® 20 (T-TBS). The sheets were incubated for 2 hr at 37° C. with the anti-GNA33 mAb 25 (6 μg/ml) or an anti-PorA 1.2 mAb diluted 1:100 in T-TBS blocking buffer. Alkaline phosphatase-conjugated goat anti-mouse IgG (BioRad) was then added at 1:3000 dilution in T-TBS blocking buffer for 1 hr at 37° C. Sheets were washed three times with T-TBS and detection of binding was achieved by incubating the sheets with bromo-4-chloro-3-indolyl-phosphate (BCIP) (Sigma, Steinheim, Germany) and […] in substrate buffer (100 mM Tris, pH 8.9, 100 mM NaCl, 2 mM MgCl2). Quantitative evaluation of the signal was obtained using a Umax Speedy II 2200 optical scanner.

The target in assay [1] is PorA of N. meningitidis strain 2996 (B:2b:P1.5,2) (Neisseria meningitidis serogroup B strain 2996). The experiment in a line: cell-based or functional assay.
The target of assay [2] is PorA of N. meningitidis strain 8047 (B:2b:P1.5,2) (Neisseria meningitidis serogroup B strain 8047). The experiment in a line: cell-based or functional assay.
Assay [3] has as its target PorA of N. meningitidis strain BZ232 (B:NT:P1.2) (Neisseria meningitidis serogroup B strain BZ232). The experiment in a line: cell-based or functional assay.
In assay [4] the target is PorA of N. meningitidis strain M3735 (B:NT:P1.5,2) (Neisseria meningitidis serogroup B strain M3735). The experiment in a line: cell-based or functional assay.
In assay [5] the target is PorA of N. meningitidis strain M5545 (B:NT:P1.5,2) (Neisseria meningitidis serogroup B strain M5545). As to the kind of experiment: cell-based or functional assay.
The target in assay [6] is PorA of N. meningitidis strain M5682 (B:2a:P1.5,2) (Neisseria meningitidis serogroup B strain M5682). The experiment in a line: cell-based or functional assay.
The target of assay [7] is PorA of N. meningitidis strain M5954 (C:2a:P1.2) (Neisseria meningitidis serogroup C strain M5954). As to the kind of experiment: cell-based or functional assay.
Assay [8] concerns the target PorA of N. meningitidis strain M986 (B:2a:P1.5,2) (Neisseria meningitidis serogroup B strain M986). As to the kind of experiment: cell-based or functional assay.
In assay [9] the target is PorA of N. meningitidis strain NMB (B:2b:P1.5,2) (Neisseria meningitidis serogroup B strain NMB). The experiment in a line: cell-based or functional assay.
For assay [10], the system named is P1.2 epitope of PorA loop 4. The experiment in a line: Immunization of CD1 mice with rGNA33 in Freund's adjuvant. Conditions: recombinant protein simply mixed with Freund's adjuvant, without renaturation. It counts as in vivo. As for the experimental part: In order to prepare antisera against GNA33, 20 μg of purified HT-GNA33 or untagged rGNA33 was used to immunize six-week old CD1 female mice (four to ten mice per group). The mice were obtained from Charles River (Italia S.P.A., Calco, Italy, or Hollister, Calif.). The recombinant protein was given i.p, together with complete Freund's adjuvant (CFA) for the first dose and incomplete Freund's adjuvant (IFA) for the second (day 21) and third (day 35) booster doses. Blood samples were taken on days 34 and 49.

The test system of assay [11] is encapsulated MenB strain 2996. The settings on record: mice immunized; measured against encapsulated MenB strain 2996; cited from earlier work.
Where [12] appears, read: overlapping decapeptides from loop 4 of PorA P1.2 (strain 2996).
Setting [13] is: overlapping decapeptides from GNA33.

For QTPQSQPTLV (Ac-QTPQSQPTLV), the “Dye Units (binding of anti-GNA33 mAb 25)” value with anti-GNA33 mAb 25 (setting [12]) worked out at 2 Dye Units.
For QTPVHSFQAK, in the assay with anti-GNA33 mAb 25 (setting [13]), the “Dye Units (binding of anti-GNA33 mAb 25)” value came out at 19 Dye Units.
In the case of PAA FVQ QTP Q (Ac-PAAFVQQTPQ), in the assay on anti-GNA33 mAb 25, the “Relative Binding (of anti-GNA33 mAb 25)” value was determined as 8.
QDVSAQAFQT: the “Dye Units (binding of anti-GNA33 mAb 25)” value in the assay on anti-GNA33 mAb 25 (setting [13]) is 0 Dye Units.
“meningococcal Por A P1.2-specific subtyping mAb (MN16C13F4, subclass IgG2a) (antibody)”: the BC50, human complement in assay [1], in assay [2], in [3], in [4], in assay [5] and in assay [6] was less than 0.5 µg/mL each time. Besides, the BC50, human complement in [7], in assay [8] and in assay [9] was less than 0.5 µg/mL throughout.
In the case of FVQQTPQSQP (Ac-FVQQTPQSQP), in the assay with anti-GNA33 mAb 25 (setting [12]), the “Dye Units (binding of anti-GNA33 mAb 25)” value is 9 Dye Units.
Regarding TPVHSFQAKQ, the “Dye Units (binding of anti-GNA33 mAb 25)” value with anti-GNA33 mAb 25 (setting [13]) was 2 Dye Units.
For the molecule VSAQAFQTPV, the “Dye Units (binding of anti-GNA33 mAb 25)” value in the assay with anti-GNA33 mAb 25 (setting [13]) stood at 27 Dye Units.
As to SAQAFQTPVH, the “Dye Units (binding of anti-GNA33 mAb 25)” value in the assay with anti-GNA33 mAb 25 (setting [13]) is given as 29 Dye Units.
As for PAHFVQQTPQ (Ac-PAHFVQQTPQ), the “Dye Units (binding of anti-GNA33 mAb 25)” value in the assay with anti-GNA33 mAb 25 (setting [12]) is listed as 10 Dye Units.
As to FQTPVHSFQA, the “Dye Units (binding of anti-GNA33 mAb 25)” value in the assay with anti-GNA33 mAb 25 (setting [13]) was 22 Dye Units.
As to PAK FVQ QTP A (PAHFVQQTPA), the “Relative Binding (of anti-GNA33 mAb 25)” value in the assay on anti-GNA33 mAb 25 is recorded as 2.
TPAHFVQQTP: in the assay with anti-GNA33 mAb 25 (setting [12]), the “Dye Units (binding of anti-GNA33 mAb 25)” value is listed as 8 Dye Units.
Turning to PAH FVA QTP Q (Ac-PAHFVAQTPQ), in the assay on anti-GNA33 mAb 25, the “Relative Binding (of anti-GNA33 mAb 25)” value turned out to be 2.
Take HFVQQTPQSQ (Ac-HFVQQTPQSQ): in the assay on anti-GNA33 mAb 25 (setting [12]), the “Dye Units (binding of anti-GNA33 mAb 25)” value amounted to 15 Dye Units.
Consider AQAFQTPVHS, for which the “Dye Units (binding of anti-GNA33 mAb 25)” value with anti-GNA33 mAb 25 (setting [13]) came to 30 Dye Units.
With YTPAHFVQQT (Ac-YTPAHFVQQT), the “Dye Units (binding of anti-GNA33 mAb 25)” value in the assay on anti-GNA33 mAb 25 (setting [12]) was 0 Dye Units.
In the case of QAFQTPVHSF, the “Dye Units (binding of anti-GNA33 mAb 25)” value with anti-GNA33 mAb 25 (setting [13]) is on record as 30 Dye Units.
Take TPQSQPTVP: in the assay with anti-GNA33 mAb 25 (setting [12]), the “Dye Units (binding of anti-GNA33 mAb 25)” value is 2 Dye Units.
PAH FVQ QAP Q (Ac-PAHFVQQAPQ): in the assay with anti-GNA33 mAb 25, the “Relative Binding (of anti-GNA33 mAb 25)” value is 0.
Take AFQTPVHSFQ: the “Dye Units (binding of anti-GNA33 mAb 25)” value in the assay with anti-GNA33 mAb 25 (setting [13]) is 24 Dye Units.
With QQTPQSQPTL (Ac-QQTPQSQPTL), in the assay with anti-GNA33 mAb 25 (setting [12]), the “Dye Units (binding of anti-GNA33 mAb 25)” value is given as 0 Dye Units.
With DVSAQAFQTP, in the assay on anti-GNA33 mAb 25 (setting [13]), the “Dye Units (binding of anti-GNA33 mAb 25)” value is given as 23 Dye Units.
Take PAH AVQ QTP Q (Ac-PAHAVQQTPQ): in the assay with anti-GNA33 mAb 25, the “Relative Binding (of anti-GNA33 mAb 25)” value was 1.
For PAH FVQ QTA Q (Ac-PAHFVQQTAQ), the “Relative Binding (of anti-GNA33 mAb 25)” value in the assay with anti-GNA33 mAb 25 was found to be 0.
In the case of PAH FAQ QTP Q (Ac-PAHFAQQTPQ), in the assay with anti-GNA33 mAb 25, the “Relative Binding (of anti-GNA33 mAb 25)” value is 4.
On to PGH FVQ QTP Q (Ac-PGHFVQQTPQ), for which the “Relative Binding (of anti-GNA33 mAb 25)” value in the assay with anti-GNA33 mAb 25 stood at 8.
As to VQQTPQSQPT (Ac-VQQTPQSQPT), in the assay with anti-GNA33 mAb 25 (setting [12]), the “Dye Units (binding of anti-GNA33 mAb 25)” value is listed as 4 Dye Units.
Regarding PAH FVQ ATP Q (Ac-PAHFVQATPQ), the “Relative Binding (of anti-GNA33 mAb 25)” value with anti-GNA33 mAb 25 was 0.
For the molecule AHFVQQTPQS (Ac-AHFVQQTPQS), the “Dye Units (binding of anti-GNA33 mAb 25)” value with anti-GNA33 mAb 25 (setting [12]) is listed as 14 Dye Units.

B1: rGNA33: recombinant GNA33 of strain 2996, soluble protein without signal and lipid modification sequences (protein)
chain: MKKYLFRAALCGIAAAILAACQSKSIQTFPQPDTSVINGPDRPVGIPDPAGTTVGGGGAVYTVVPHLSLPHWAAQDFAKSLQSFRLGCANLKNRQGWQDVCAQAFQTPVHSVQAKQFFERYFTPWQVAGNGSLAGTVTGYYEPVLKGDDRRTAQARFPIYGIPDDFISVPLPAGLRSGKALVRIRQTGKNSGTIDNTGGTHTADLSQFPITARTTAIKGRFEGSRFLPYHTRNQINGGALDGKAPILGYAEDPVELFFMHIQGSGRLKTPSGKYIRIGYADKNEHPYVSIGRYMADKGYLKLGQTSMQGIKAYMQQNPQRLAEVLGQNPSYIFFRELTGSSNDGPVGALGTPLMGEYAGAVDRHYITLGAPLFVATAHPVTRKALNRLIMAQDTGSAIKGAVRVDYFWGYGDEAGELAGKQKTTGYVWQLLPNGMKPEYRP
Regarding B1, the “antibody elicited by immunization” value in assay [10] is “elicited bactericidal antibody”. Also, in assay [11], the “serum bactericidal antibody titers” value is “high”.
